Patent US20210115398A1, “CORNEAL TISSUE CULTURE SYSTEM AND CORNEAL TISSUE CULTURE METHOD THEREOF” (Chang Gung Memorial Hospital, Linkou, priority 2019, published 2021)

Assays:
[1] = test system: rabbit corneal endothelial cells; assay: Dose-response test: rabbit corneal endothelial cells co-cultivated with rabbit corneal stroma cells; type: cell-based; conditions: 20 μmol/L LPA, 5 days of cultivation, co-culture with corneal stroma cells
Protocol: The tissue culture media (DMEM, 10% FBS, 25 μg/mL gentamycin) added with 0 μmol/L, 10 μmol/L, 20 μmol/L, and 100 μmol/L of LPA were used for co-cultivating the rabbit corneal endothelial cells and the rabbit corneal stroma cells at 37° C. with 5% CO2. After 5 days of cultivation, the cell number of the rabbit corneal endothelial cells of each groups were calculated and shown in FIG. 6. […] According to the result, the tissue culture media used for the following experiments was added with 20 μmol/L LPA.

[2] = test system: corneal endothelial cells of rabbit corneal tissue; assay: Evaluation of the corneal endothelial cell density of the corneal tissue (tissue culture dish 100); type: cell-based; conditions: 20 μmol/L LPA
Protocol: The rabbit corneal tissues were placed individually in the tissue culture dishes 100, cultivated with the tissue culture media (DMEM basal medium, 10% FBS, and 25 μg/mL gentamycin) added with 20 μmol/L LPA (Example) or without LPA (Comparative example), and incubated at 37° C. with 5% CO2, wherein a portion of the corneal epithelium layer of the rabbit corneal tissues faced toward the first direction A and contacted with air and the corneal endothelium layer contacted with the tissue culture media. After 7 days of cultivation, the cell morphology and the analysis of cell density of the corneal endothelium layer were shown in FIG. 7 and FIG. 8. The density of the corneal endothelial cells of the example on day 0 was 3766.7±332.9 cells/mm^2, 4572.2±179.8 cells/mm^2 on day 5, and 4950.0±304.1 cells/mm^2 on day 7. […] According to the result, the corneal endothelial cell density may be increased in the LPA-treated example.

[3] = test system: corneal endothelial cells of rabbit corneal tissue; assay: Morphology of the corneal endothelial cells of the corneal tissue (ZO-1 immunostaining); type: cell-based; conditions: 10 μmol/L LPA, 7 days
Protocol: (§1) The rabbit corneal tissues were placed individually in the tissue culture dishes 100, cultivated with the tissue culture media (DMEM basal medium, 10% FBS, and 25 μg/mL gentamycin) added with 10 μmol/L LPA (Example) or without LPA (Comparative example), and incubated at 37° C. with 5% CO2 for 7 days, wherein a portion of the corneal epithelium layer of the rabbit corneal tissues faced toward the first direction A and contacted with air and the corneal endothelium layer contacted with the tissue culture media. The corneal endothelium layer was immunostained for ZO-1 on day 0 and day 7 for observing the cell morphology of the corneal endothelial cells of the corneal tissue.

[4] = test system: corneal endothelial cells of rabbit corneal tissue; assay: Evaluation of the cell proliferation of the corneal tissue (BrdU labeling); type: cell-based; conditions: 10 μmol/L LPA, 7 days, BrdU from day 5 to day 7
Protocol: as §1, with “Bromodeoxyuridine (BrdU)” for “The corneal endothelium layer”, “added to the culture media from” for “immunostained for ZO-1 on”, “5 to” for “0 and”, “proliferation” for “cell morphology”, “cells.” for “corneal endothelial cells of the corneal tissue.”

[5] = test system: damaged rabbit corneal endothelium layer; assay: Healing effect of the damaged corneal endothelium layer of the corneal tissue (Alizarin Red S staining); type: cell-based; conditions: 20 μmol/L LPA
Protocol: A polyvinylidene fluoride (PVDF) filter membrane with regularly punched-out holes was used to cover the rabbit corneal endothelium layer; exposing the inner damage zone (I) scraped with Cellulose Eye Spears. The rest area of the corneal endothelium layer was defined as the outer damage zone (O). The damaged corneal tissues were placed individually in the tissue culture dishes 100, cultivated with the tissue culture media (DMEM basal medium, 10% FBS, and 25 μg/mL gentamycin) added with 20 μmol/L LPA (Example) or without LPA (Comparative example), and incubated at 37° C. with 5% CO2, wherein a portion of the corneal epithelium layer of the rabbit corneal tissues faced toward the first direction A and contacted with air and the corneal endothelium layer contacted with the tissue culture media. The inner damage zone (I) and the outer damage zone (O) of the corneal tissues on day 0 and day 2 were observed using Alizarin Red S staining. The morphology of the corneal tissue stained by Alizarin Red S was shown in FIG. 12, wherein the stained area (brown color) represented the corneal […] of the inner damage zone (I) and the unstained area represented the corneal endothelial cells of the outer zone (O). […] Refer to FIG. 14, the corneal endothelial cell density of the inner damage zone of the LPA-treated example was 1358±8 0.4 cells/mm^2, and the circularity and aspect ratio of the corneal endothelial cells were 0.68±0.15 and 2.39±1.14. However the corneal endothelial cell density of the inner damage zone of the comparative example was 900.0±198.4 cells/mm^2, and the circularity and aspect ratio of the corneal endothelial cells were 0.43±0.14 and 4.91±2.43. According to the results, the addition of LPA can stimulate cell proliferation of the damaged corneal tissue. Also, LPA enhanced the repopulation of the neighbor corneal endothelial cells to the damage zones.

[6] = test system: corneal endothelial cells of transplanted damaged corneal tissue; assay: Evaluation of corneal tissue transplantation into rabbit eyes; type: in vivo; conditions: damaged cornea cultivated 2 days with 20 μmol/L LPA, day 6
Protocol: The damaged corneal tissues were prepared using the PVDF filter membrane described above (please refer to the above paragraph). Then, those damaged corneal tissues were placed individually in the tissue culture dishes 100, cultivated with the tissue culture media (DMEM basal medium, 10% FBS, and 25 μg/mL gentamycin) added with 20 μmol/L LPA (Example) or without LPA (Comparative example 1), and incubated at 37° C. with 5% CO2, wherein a portion of the corneal epithelium layer of the rabbit corneal tissues faced toward the first direction A and contacted with air and the corneal endothelium layer contacted with the tissue culture media. After 2 days of cultivation, the damaged corneal tissues were transplanted into rabbit eyes. In addition, total corneal endothelium scrapping and undamaged mock donor corneas were also prepared to serve as comparative examples 2 and 3. External eye photography was taken in the rabbits after transplantation on day 0 and day 6, respectively. Following sacrifice on day 6, the corneal endothelial cells were stained with Alizarin Red S for observations of the cell morphology of the corneal endothelial cells in all density zones (A) (average of high-density and low-density zones) and cell shape in low-density zone (L) were examined. […] Please refer to FIG. 16 showing the analysis of the corneal endothelial cell density, circularity, and aspect ratio. The corneal endothelial cell density of the example was 2200.0±90.1 cells/mm^2, and the circularity and the aspect ratio of the corneal endothelial cells of example 1 were 0.84±0.05 and 1.35±0.02. However, in comparative example 1, the cell density was 1700.0±288.3 cells/mm^2, the circularity was 0.69±0.12, and the aspect ratio was 2.12±1.13.

[7] = test system: human corneal stromal cells; assay: Gene expression analysis using cDNA microarray; type: cell-based; conditions: 20 μmol/L LPA, 2 days
Protocol: (§2) The gene expression profiling and the cytokine of the human corneal stromal cells were analyzed using cDNA microarray chip and Cytokine Array G5 chip. The human corneal stromal cells were cultured with culture media (DMEM basal medium, 10% FBS, and 25 μg/mL gentamycin) added with 20 μmol/L LPA (served as an Example) or without adding LPA (Comparative example) and incubated at 37° C. with 5% CO2. After 2 days of cultivation, the total RNA from the human corneal stromal cells in example and comparative example were isolated with the TRIzol reagent and purified using RNeasy column. After amplification and labeling the total RNA samples, GeneChip hybridization was performed and a GeneArray G7 scanner was used to scan the results. The culture media from the example and the comparative example were collected and the cytokines were analyzed using a human cytokine antibody array. […] It was confirmed that LPA stimulated the proliferation of the endothelial cells of the corneal tissue via two pathways including directly affecting the endothelial cells and stimulating the secretion of CCL20 and IL-1β from the […].

[8] = test system: human corneal stromal cells; assay: Cytokine analysis of culture media using human cytokine antibody array; type: cell-based; conditions: 20 μmol/L LPA, 2 days
Protocol: as §2

[9] = test system: corneal endothelial cells of human corneal residual tissue; assay: Proliferation and morphology of corneal endothelial cells of human corneal residual tissue (ZO-1 and Ki-67 immunostaining); type: cell-based; conditions: 20 μmol/L LPA, Day 7, tissue immersed
Protocol: The cell morphology, cell density, and cell proliferation of the present evaluation were performed through immunostaining.
One-third of the human corneal residual tissue samples were used for immunostaining for ZO-1 directly (Day 0), while the remaining two-thirds were immersed and placed endothelial side up in the tissue culture media (DMEM basal medium, 10% FBS, and 25 μg/mL gentamycin) added with 20 μmol/L LPA (served as an Example) or without adding LPA (Comparative example) and incubated at 37° C. with 5% CO2. 7 days later, the tissues were cut into halves and subjected to immunostaining for ZO-1 and Ki-67 to evaluate the effects of LPA treatment on corneal endothelial cell density and cell proliferation. […] The corneal endothelial cell density of the LPA-treated example and the comparative example were 2848.8 cells/mm^2±331.7 cells/mm^2 and 2004.7 cells/mm^2±220.2 cells/mm^2.

For lysophosphatidic acid [LPA], the “corneal endothelial cell proliferation (cell number)” value [1] was “significantly stimulated corneal endothelial cell proliferation”, the “density of the corneal endothelial cells” value ([2]; day 0) was 3766.7±332.9 cells/mm^2 and the “density of the corneal endothelial cells” value ([2]; day 5) was 4572.2±179.8 cells/mm^2. The “density of the corneal endothelial cells” value ([2]; day 7) was 4950.0±304.1 cells/mm^2, the “morphology of the corneal endothelial cells (ZO-1)” value [3] was “not altered” and the BrdU labeling cells [4] was 35.2%±16.1%. For the same substance, the “aspect ratio of the corneal endothelial cells” value ([5]; day 2, inner damage zone) was 2.39±1.14, the “circularity of the corneal endothelial cells” value ([5]; day 2, inner damage zone) was 0.68±0.15 and the “repopulation of the inner damage zone (I)” value ([5]; two days after tissue cultivation) was “repopulated by neighbor corneal endothelial cells”. For the same substance, the “aspect ratio of the corneal endothelial cells” value [6] was 1.35±0.02, the “circularity of the corneal endothelial cells” value [6] was 0.84±0.05 and the “corneal endothelial cell density” value [6] was 2200.0±90.1 cells/mm^2. The “transparency of the transplanted corneal tissue” value [6] was “remained transparent”, the “Gene expression in stromal cells: 1L1RN (Interleukin 1 receptor antagonist)” value [7] was 17.39 fold change and the “Gene expression in stromal cells: 1L7R (Interleukin 7 receptor)” value [7] was 15.03 fold change. The “Gene expression in stromal cells: CCL5” value [7] was 17.63 fold change, the “Gene expression in stromal cells: CCL7” value [7] was 11.39 fold change and the “Gene expression in stromal cells: CCL8” value [7] was 15.89 fold change. The “Gene expression in stromal cells: CCL20” value [7] was 625.99 fold change, the “Gene expression in stromal cells: CSF3” value [7] was 85.04 fold change and the “Gene expression in stromal cells: CXCL3” value [7] was 11.31 fold change. The “Gene expression in stromal cells: CXCL5” value [7] was 22.32 fold change, the “Gene expression in stromal cells: CXCL10” value [7] was 20.97 fold change and the “Gene expression in stromal cells: EPGN” value [7] was 10.85 fold change. The “Gene expression in stromal cells: ESM1” value [7] was 20.11 fold change, the “Gene expression in stromal cells: IL1A (Interleukin 1 alpha)” value [7] was 58.49 fold change and the “Gene expression in stromal cells: IL1B” value [7] was 572.05 fold change. The “Gene expression in stromal cells: INHBA” value [7] was 20.97 fold change, the “Gene expression in stromal cells: OLR1” value [7] was 24.25 fold change and the “Cytokine content in media: CCL20” value [8] was 3.26 fold change. For the same substance, the “Cytokine content in media: CSF3” value [8] was 0.85 fold change, the “Cytokine content in media: IL1A” value [8] was 0.80 fold change and the “Cytokine content in media: IL1B” value [8] was 1.73 fold change. The Ki-67-positive cells [9] was 11.86%±2.80%, the “corneal endothelial cell density” value [9] was 2848.8 cells/mm^2 and the “morphology of corneal endothelial cells (ZO-1)” value [9] was “not altered”.
